The target in one data set is T1, aldose reductase (Bos taurus, UniProt P16116).
T1 construct: The enzyme is extracted from beef crystalline lens; from tissue; host or cells: beef crystalline lens
The experiment in a line: Inhibition of aldose reductase in vitro (reduction of glyceraldehyde to glycerol, spectrophotometric NADPH determination). It counts as biochemical. To be noted: enzyme from beef crystalline lens; substrate glyceraldehyde; read-out: log 1/CI50 (CI50 = concentration in mole/l resulting in 50% inhibition of the enzymatic activity) (converted). The protocol: The enzyme is extracted from beef crystalline lens by the method described by Hayman S. and Kinoshita J. H. (J. Biol Chem., 1965, 240, 2,877). The percentage of inhibition of the capacity of the enzyme to reduce glyceraldehyde to glycerol under the effect of the product to be tested is determined by the spectrophotometric determination of the amount of NADPH reacting according to the method described by Hayman and Kinoshita. We give below in parentheses after each product the value of the log 1/CI50 where CI50 represents the concentration expressed in mole/l resulting in 50% inhibition of the enzymatic activity: COR 19 85 (4.9); COR 19 91 (5.5); COR 19 93 (5.1); COR 19 94 (5.2); COR 19 99 (5.4); COR 35 01 (6.9); COR 35 02 (5.15); COR 35 07 (6.3); COR 35 09 (5.7); COR 35 11 (5.9); COR 35 19 (5.8); COR 35 22 (5.2).

The test system of data set [1] is rats. The data set can be described thus: Galactose cataracts: degree of cataract marked 0 to 3 by ophthalmoscope. It counts as in vivo. Conditions: 20% galactose diet, 100 mg/kg d. The protocol: Rats, 14 days old, were kept in a cage of 11 with a mother for 3 days. From the 4th to the 9th day, the animals received the product to be tested or the reference product. At the end of pretreatment, the mothers were removed. Two out of the 11 animals were eliminated to obtain batches of homogenous weight. The selected rats were divided 3 by 3 into cages at random, and the diet containing 20% galactose was put in place. […] The degree of cataract was evaluated by a marking system from 0 to 3.
The marks given to the treated animals were compared with those of the control animals by the Mann and Whitney U test (D. Schwartz, "Statistical Methods for the Use of Physicians and Biologists," Ed. Flammarion, Paris, 1963).

Data set [2] relates to rats. The experiment in a line: Neuropathy with streptozotocin: sorbitol and inositol levels in sciatic nerves, glycemia. It counts as in vivo. To be noted: 100 mg/kg/d. On the procedure:
Four batches of 10 rats weighing about 200 g were treated from D-2 to D+3 with a gummy julep of the product to be tested. On D O the animals received an i.p. injection of 100 mg/kg of streptozotocin dissolved in a citrate buffer. The glycemia of the rats was determined 24 hours and 3 days after injection of the streptozotocin and the sciatic nerves were removed to determine the sorbitol and inositol levels. […] COR 35 01 had no effect on the glycemia of the animals.

The next data set is described as follows: Toxicity in mice. To be noted: mouse, in vivo. The data set is classed as in vivo.
Another data set concerns mice. The experiment in a line: Toxicity in mice. It counts as in vivo. To be noted: for LD0: orally.
Data set [3] concerns rats. The data set can be described thus: Diuretic activity, method of Lipschitz et coll. It counts as in vivo. To be noted: oral administration of 20 mg/kg. The protocol:
Besides their advantage in curative and preventive therapy of complications from diabetes, the products, which are the object of this invention, are also useful as diuretics. Thus, product COR35 07, tested in rats according to the method of Lipschitz et coll.(J. Pharm. Exp. Therap., 1943, 79, 97-110), results in an increase in urinary excretion of sodium (natruria was multiplied by 2.6 after oral administration of 20 mg/kg).

SMILES strings stand for the structures. Where a name gives a salt, the structure may show the parent alone.

As for `CCCc1c(-c2ccc(C(=O)O)cc2)oc2cc(S(=O)(=O)N(C)C)ccc2c1=O` [COR 35 09, N,N-7-dimethylsulfamoyl-3-propyl-4'-flavonecarboxylic acid], the IC50 on aldose reductase is 2 µM. In addition, the “galactose cataract average index D + 1” value with rats [1] (D+1, marks 0 to 3) is recorded as 0.0. In addition, in the data set on rats [1] (D+2, marks 0 to 3), the “galactose cataract average index D + 2” value stood at 0.0. Moreover, the “galactose cataract average index D + 3” value in the data set with rats [1] (D+3, marks 0 to 3) is recorded as 0.031. For the same compound, the “galactose cataract average index D + 4” value in the data set on rats [1] (D+4, marks 0 to 3, S) was 0.47. Moreover, in the data set on rats [1] (D+5, marks 0 to 3, S), the “galactose cataract average index D + 5” value is on record as 0.97. Moreover, in the data set on rats [1] (D+6, marks 0 to 3, S), the “galactose cataract average index D + 6” value was found to be 1.44. The “galactose cataract average index D + 7” value in the data set with rats [1] (D+7, marks 0 to 3, S) is listed as 1.69. In the data set on rats [1] (D+8, marks 0 to 3, S), the “galactose cataract average index D + 8” value is listed as 1.81. Besides, the “galactose cataract average index D + 9” value in the data set on rats [1] (D+9, marks 0 to 3, S) was found to be 2.06. The “galactose cataract average index D + 10” value in the data set with rats [1] (D+10, marks 0 to 3, S) was 1.88. Also, the “galactose cataract average index D + 11” value with rats [1] (D+11, marks 0 to 3, S) was 1.69. The “galactose cataract average index D + 12” value with rats [1] (D+12, marks 0 to 3, S) was determined as 1.81. Moreover, the “galactose cataract average index D + 13” value in the data set on rats [1] (D+13, marks 0 to 3, S) is reported as 1.50.
Broadly, the mortality is the share of the test organisms that died. As to `CCCc1c(-c2ccc(C(=O)O)cc2)oc2cc(NS(C)(=O)=O)ccc2c1=O` [COR 35 01, 7-methanesulfonamido-3-propyl-4'-flavonecarboxylic acid], at aldose reductase, the IC50 is 0.126 µM. Further, the “sorbitol level in the sciatic nerves” value in the data set on rats [2] (D-2 to D+3, control 0.983±0.334) is 0.426 ± 0.171 mg/kg. In addition, the “inositol level in the sciatic nerves” value in the data set with rats [2] (D-2 to D+3, control 1.6555±0.372) came out at 1.184 ± 0.340 mg/kg. For the same compound, the mortality was 20% in “Toxicity in mice” (ip, intraperitoneally, 500 mg/kg) and “did not cause any mortality” in the data set with mice (intraperitoneally, 250 mg/kg). Besides, the LD0 entry in the data set with mice was “more than 2000 mg/kg”.
Regarding `CCCc1c(-c2ccc(C(=O)O)cc2)oc2cc(S(=O)(=O)N(C)CCO)ccc2c1=O` [COR 35 19, 7-(N-hydroxyethyl N-methylsulfamoyl)-3-propyl-4'-flavonecarboxylic acid], the IC50 on aldose reductase was 1.58 µM.
With `CCCc1c(-c2ccc(C(=O)O)cc2)oc2cc(NC(=O)CN3CCOCC3)ccc2c1=O` [COR 35 02, 7-morpholinoacetamido-3-propyl-4'-flavonecarboxylic acid hydrochloride], the IC50 at aldose reductase is 7.08 µM.
With `CCCc1c(-c2ccc(C(=O)O)cc2)oc2cc(NC(C)=O)ccc2c1=O` [COR 19 91, 7-acetamido-3-propyl-4'-flavonecarboxylic acid], at aldose reductase, the IC50 is 3.16 µM. Further, in the data set on mice, the LD0 entry is recorded as “more than 2000 mg/kg”.
`CCCc1c(-c2ccc(C(=O)OC)cc2)oc2cc(NS(C)(=O)=O)ccc2c1=O` [COR 19 99, methyl 7-methanesulfonamido-3-propyl-4'-flavonecarboxylate]: at aldose reductase, the IC50 is 3.98 µM.
Same read-out and setting: in the case of `CCc1c(-c2ccc(C(=O)O)cc2)oc2cc(NC(C)=O)ccc2c1=O` [COR 19 93, 7-acetamido-3-ethyl-4'-flavonecarboxylic acid] it was 7.94 µM.
On to `COC(=O)c1ccc(-c2oc3cc(NS(C)(=O)=O)ccc3c(=O)c2OS(C)(=O)=O)cc1` [COR 35 07, methyl 7-methanesulfonamido-3-methanesulfonyloxy-4'-flavonecarboxylate], for which the IC50 at aldose reductase was 0.501 µM. The “natruria multiplied by (increase in urinary excretion of sodium)” value with rats [3] was 2.6.
Turning to `CCCc1c(-c2ccc(C(=O)O)cc2)oc2cc(S(N)(=O)=O)ccc2c1=O` [COR 35 22, 7-sulfamoyl-3-propyl-4'-flavonecarboxylic acid], the IC50 at aldose reductase was 6.31 µM.
As for `CCCc1c(-c2ccc(C(=O)OC)cc2)oc2cc(NC(=O)CN3CCOCC3)ccc2c1=O` [COR35 17, methyl 7-(morpholinoacetamido)-3-propyl-4'-flavonecarboxylate], the mortality in the data set “Toxicity in mice” (oral administration of 1000 mg/kg) turned out to be 10%.
Turning to `CCCc1c(-c2ccc(C(=O)O)cc2)oc2cc(S(=O)(=O)NC)ccc2c1=O` [COR 35 11, N-7-methylsulfamoyl-3-propyl-4'-flavonecarboxylic acid], at aldose reductase, the IC50 is 1.26 µM.
Same read-out and setting: in the case of `CC(=O)Nc1ccc2c(=O)cc(-c3ccc(C(=O)O)cc3)oc2c1` [COR 19 85, 7-acetamido-4'-flavonecarboxylic acid] it was 12.6 µM.
Regarding `CC(=O)Nc1ccc2c(=O)c(OC(C)=O)c(-c3ccc(C(=O)O)cc3)oc2c1` [COR 19 94, 7-Acetamido-3-acetoxy-4'-flavonecarboxylic acid], the IC50 on aldose reductase is 6.31 µM. In the data set on mice, the LD0 entry is listed as “more than 2000 mg/kg”.
